Measurements as given in patent US12331096B2, “Binding domain mapping and compounds, compositions, complexes, methods, and kits related thereto” (GEORGE MASON RESEARCH FOUNDATION, INC., priority 2019, dated 2025).
“And” between values parts separate entries of the source, which are not always exact repeats. Equal entries are not always repeated. “Also recorded” adds a separate entry of the source. Where two headings read alike, the source gives them in different places. Where a SMILES comes first, the peptide text is derived from it. Bridges are numbered along the chain shown (N, C = ends).

Legend:
[1] = Solubility of azo coupling products synthesized in PBS; type: physicochemical; settings: synthesized at room temperature in PBS, pH 7.4
Method: Dyes stocks were prepared to 1 mg/mL final concentrations. Synthesis was conducted as follows: Fast Dyes were mixed in 1× Dubelcco's PBS with an excess of coupling agent (3-fold molar concentration of coupling agent to fast dye) and vortexed. Reactions were conducted at room temperature and proceeded in the first 5 minutes of mixing with evident color change. Dye stocks were allowed to incubate at room temperature for one week prior to use. Dyes were used without further purification and were diluted prior to use in protein painting. Dye reagents were vortexed before each use, and stable for >6 months at room temperature. Reactions were monitored by reverse phase C18 TLC (mobile phase of 60% methanol, 40% water) to determine number of product bands. […] The two major product bands were separated via reverse-phase flash column chromatography conducted essentially as described previously using a 20 mm column, stationary phase of COSMOSIL C18-OPN reverse phase resin (Nacalai USA, Catalog number 37842-66), and mobile phase of 60% methanol or 30% acetonitrile. Fractions containing individual bands were identified via reverse-phase TLC and were pooled and dried. Pure samples by TLC were analyzed by NMR to confirm structure of each major product.
Two different fast dyes were used to synthesize new dye candidates. Fast Blue B was chosen to synthesize new diazo dyes, as it is structurally similar to the core of TB, while Fast Red TR was chosen to synthesize new halogenated small dyes. Four diverse coupling agents, 4-Amino-1-naphthalenesulfonic Acid or naphthionic acid, 4-Amino-5-hydroxy-2,7-naphthalenedisulfonic acid or H-acid, 7-Amino-1,3-naphthalenedisulfonic acid or Amino G Acid, and 2-napthol were chosen to evaluate the role of sulfonates on specific binding. […] The remaining 5 candidate dyes, Fast Blue B+Naphthionic Acid (FBBNA), Fast Blue B+H-acid (FBBHA), Fast Red TR+Naphthionic Acid (FRNA), Fast Red TR+H-acid (FRHA), and Fast Red TR+Amino G Acid (FRAGA), were all evaluated for their specific binding with respect to thyroglobulin (see Table 3).

[2] = biological target: T1, Thyroglobulin (Bos taurus, UniProt P01267); assay: Specific binding of dye to thyroglobulin (gel filtration, UV-Vis); settings: for Specific binding to thyroglobulin at equilibrium: Vmax of Michaelis-Menten fit, no CuSO4
T1 construct: purchased Sigma Aldrich 9010-34-8
T1 sequence (P01267 20-2769): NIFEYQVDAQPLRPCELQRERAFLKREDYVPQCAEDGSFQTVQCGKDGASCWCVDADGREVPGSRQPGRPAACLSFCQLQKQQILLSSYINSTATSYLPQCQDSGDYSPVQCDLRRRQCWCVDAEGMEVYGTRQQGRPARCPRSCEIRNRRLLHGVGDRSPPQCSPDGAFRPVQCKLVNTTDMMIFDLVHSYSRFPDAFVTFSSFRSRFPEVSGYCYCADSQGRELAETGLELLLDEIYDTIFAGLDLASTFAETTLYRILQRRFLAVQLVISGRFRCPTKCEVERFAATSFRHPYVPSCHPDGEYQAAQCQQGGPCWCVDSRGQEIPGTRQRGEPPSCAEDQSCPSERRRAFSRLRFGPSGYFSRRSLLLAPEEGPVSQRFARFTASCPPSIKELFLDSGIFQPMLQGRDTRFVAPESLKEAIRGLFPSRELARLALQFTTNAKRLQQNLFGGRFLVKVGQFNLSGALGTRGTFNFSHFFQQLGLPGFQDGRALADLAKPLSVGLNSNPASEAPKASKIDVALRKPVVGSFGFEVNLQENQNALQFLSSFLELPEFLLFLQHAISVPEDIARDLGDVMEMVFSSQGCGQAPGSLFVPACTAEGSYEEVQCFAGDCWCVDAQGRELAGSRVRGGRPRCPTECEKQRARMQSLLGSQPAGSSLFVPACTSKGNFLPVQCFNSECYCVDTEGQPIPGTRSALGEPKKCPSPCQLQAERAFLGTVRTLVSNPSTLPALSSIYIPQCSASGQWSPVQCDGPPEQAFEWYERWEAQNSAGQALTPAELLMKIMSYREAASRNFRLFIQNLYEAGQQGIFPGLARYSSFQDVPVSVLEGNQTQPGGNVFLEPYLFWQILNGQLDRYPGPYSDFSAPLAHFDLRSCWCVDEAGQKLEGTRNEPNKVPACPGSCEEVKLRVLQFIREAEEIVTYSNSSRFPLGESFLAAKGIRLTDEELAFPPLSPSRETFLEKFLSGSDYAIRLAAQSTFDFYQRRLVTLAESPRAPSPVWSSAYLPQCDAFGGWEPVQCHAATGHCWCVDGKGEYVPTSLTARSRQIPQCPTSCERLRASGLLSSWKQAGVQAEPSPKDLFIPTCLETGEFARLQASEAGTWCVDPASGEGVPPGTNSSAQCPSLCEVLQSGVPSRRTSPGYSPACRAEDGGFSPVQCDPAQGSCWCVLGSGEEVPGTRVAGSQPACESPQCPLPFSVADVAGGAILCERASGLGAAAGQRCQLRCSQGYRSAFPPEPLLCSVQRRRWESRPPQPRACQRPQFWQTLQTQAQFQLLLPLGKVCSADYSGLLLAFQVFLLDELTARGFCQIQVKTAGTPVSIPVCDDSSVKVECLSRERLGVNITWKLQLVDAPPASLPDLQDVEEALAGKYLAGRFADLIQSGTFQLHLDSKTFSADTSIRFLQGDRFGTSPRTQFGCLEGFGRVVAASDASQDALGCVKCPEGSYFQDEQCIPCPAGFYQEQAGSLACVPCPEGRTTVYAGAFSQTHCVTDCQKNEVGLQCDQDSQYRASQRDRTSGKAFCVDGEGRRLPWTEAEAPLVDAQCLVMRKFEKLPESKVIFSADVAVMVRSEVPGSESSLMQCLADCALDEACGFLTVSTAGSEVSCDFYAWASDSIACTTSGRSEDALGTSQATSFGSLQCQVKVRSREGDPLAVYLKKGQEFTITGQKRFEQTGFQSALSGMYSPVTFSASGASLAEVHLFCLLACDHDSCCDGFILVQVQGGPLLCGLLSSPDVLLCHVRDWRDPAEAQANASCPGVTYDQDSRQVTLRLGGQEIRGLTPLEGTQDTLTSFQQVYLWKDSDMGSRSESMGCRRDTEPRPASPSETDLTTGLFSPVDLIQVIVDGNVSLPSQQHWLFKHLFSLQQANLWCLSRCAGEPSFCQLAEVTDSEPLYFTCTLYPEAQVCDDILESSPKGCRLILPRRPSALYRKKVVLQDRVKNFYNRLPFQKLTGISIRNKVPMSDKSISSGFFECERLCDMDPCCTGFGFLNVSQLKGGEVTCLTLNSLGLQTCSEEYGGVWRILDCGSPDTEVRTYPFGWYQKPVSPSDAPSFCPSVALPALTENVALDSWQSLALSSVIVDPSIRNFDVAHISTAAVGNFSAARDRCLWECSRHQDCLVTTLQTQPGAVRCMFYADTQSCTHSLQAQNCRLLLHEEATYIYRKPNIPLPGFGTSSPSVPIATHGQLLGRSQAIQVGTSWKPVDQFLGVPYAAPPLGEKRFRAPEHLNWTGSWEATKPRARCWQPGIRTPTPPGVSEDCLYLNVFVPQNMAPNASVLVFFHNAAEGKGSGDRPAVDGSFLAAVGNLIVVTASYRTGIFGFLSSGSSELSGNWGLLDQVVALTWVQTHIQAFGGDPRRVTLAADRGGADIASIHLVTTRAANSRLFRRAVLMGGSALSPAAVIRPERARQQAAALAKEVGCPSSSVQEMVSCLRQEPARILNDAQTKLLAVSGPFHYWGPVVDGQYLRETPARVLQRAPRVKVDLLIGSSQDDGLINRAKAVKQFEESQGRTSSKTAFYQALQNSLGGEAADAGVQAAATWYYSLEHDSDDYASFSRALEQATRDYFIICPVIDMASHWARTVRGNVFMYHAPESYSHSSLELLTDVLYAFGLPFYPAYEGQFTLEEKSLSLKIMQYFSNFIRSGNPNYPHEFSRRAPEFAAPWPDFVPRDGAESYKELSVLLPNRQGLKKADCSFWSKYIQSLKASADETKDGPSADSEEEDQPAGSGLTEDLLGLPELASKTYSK
Method: (§1) To determine specific binding of each candidate dye, thyroglobulin was primarily used as a model protein, because its large surface area facilitated more molecules of dye binding per protein, and thus higher signal to noise ratios versus smaller proteins. Candidate dyes were examined on a UV-2501PC UV-Vis spectrometer to determine Amax values. Standard curves were prepared for quantification of molecules of dye; dyes were eliminated from consideration if sensitivity of detection was not greater than 10 μM in solution. Thyroglobulin (1-5 μM) was mixed with 100-fold molar excess of candidate dye dissolved in PBS and allowed to associate between 15 seconds to 2 hours at room temperature. After association, 50 μL of the dye-protein mixtures were passed through a mini Quick Spin Oligo Column (Sephadex G-25 resin, Roche) and centrifugated at 1000× g for 1 min to separate unbound dye from the protein-dye complex. The collected flow-through was examined with UV-Vis spectroscopy, and quantity of dye in the flow-through was calculated using the previously developed standard curve for the dye. Specific Binding was defined as [Paint Molecules Bound]/[Protein]. A plot of specific binding versus time was fit with the Michaelis-Menton equation in GraphPad Prism 6 as a model to determine association kinetics and maximum dye binding, where Vmax represents the maximum amount of dye molecules that bind to the protein at equilibrium. All curves are fit to data from two independent experiments. Specific binding of dye candidates to lysozyme was conducted similarly, with the change that lysozyme (2-10 μM) was mixed with 50-fold molar excess of dye candidate dissolved in PBS and allowed to associate for the indicated time points.

[3] = Peptide solubility to 1 mM stock; settings: solvent additive for 1 mM stock
[4] = biological target: T2, Lysozyme (Gallus gallus, UniProt P00698); assay: Specific binding of dye to lysozyme
T2 construct: purchased Sigma Aldrich 12650-88-3
T2 sequence (P00698 19-147): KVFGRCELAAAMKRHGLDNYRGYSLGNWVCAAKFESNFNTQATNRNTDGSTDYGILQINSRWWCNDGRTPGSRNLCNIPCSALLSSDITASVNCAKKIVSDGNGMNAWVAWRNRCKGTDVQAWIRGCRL
Method: as §1

[5] = biological target: bovine serum albumin (Bos taurus, UniProt P02769); assay: Circular dichroism spectroscopy of BSA with dye, urea denaturation
bovine serum albumin, sequence (P02769 25-607): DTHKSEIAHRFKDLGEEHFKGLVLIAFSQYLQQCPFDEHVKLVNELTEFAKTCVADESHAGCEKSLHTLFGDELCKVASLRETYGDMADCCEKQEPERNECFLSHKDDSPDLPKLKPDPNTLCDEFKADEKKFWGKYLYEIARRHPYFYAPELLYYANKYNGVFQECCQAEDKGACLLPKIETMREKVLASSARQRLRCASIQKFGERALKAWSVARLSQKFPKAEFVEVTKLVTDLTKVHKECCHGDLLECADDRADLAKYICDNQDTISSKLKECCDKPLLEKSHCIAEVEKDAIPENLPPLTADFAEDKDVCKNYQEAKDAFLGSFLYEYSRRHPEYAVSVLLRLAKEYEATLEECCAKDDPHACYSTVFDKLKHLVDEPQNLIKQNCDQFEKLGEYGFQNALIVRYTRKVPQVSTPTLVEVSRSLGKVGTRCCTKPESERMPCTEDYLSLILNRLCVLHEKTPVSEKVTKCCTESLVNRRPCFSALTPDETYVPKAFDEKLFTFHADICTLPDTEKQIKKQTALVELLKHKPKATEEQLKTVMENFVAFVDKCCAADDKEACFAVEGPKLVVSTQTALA
Method: Circular dichroism spectroscopy was conducted using bovine serum albumin on a Jasco J-1500 CD spectrometer from 190-350 nm using a 1 mm cuvette. BSA stock solutions were prepared to 2 mg/mL from lyophilized protein in sterile-filtered 10 mM phosphate buffer, pH 7.0 and centrifuged at 16,000×g to remove particulates. Concentration was determined via A280 using an extinction coefficient of 43,824 M^−1 cm^−1 for BSA. Stocks were stored at −80° C. and diluted to the appropriate concentration in sterile-filtered MilliQ water for each experiment. Final concentration of BSA in each sample was 2 μM (0.12 mg/mL). Samples were incubated for 10 minutes with dye at a molar ratio equal to the specific binding of the molecule to the protein (i.e. 18 μM of FBBNA for 1 μM of BSA). Controls were incubated with equivolume amounts of MilliQ water in place of dye. […] Helical content of BSA spectra was determined using the online server DICHROWEB (Whitmore, L., and Wallace, B. A., “Protein secondary structure analyses from circular dichroism spectroscopy: methods and reference databases.” Biopolymers. 89, 392-400, 2008; Whitmore, L., and Wallace, B. A., “DICHROWEB, an online server for protein secondary structure analyses from circular dichroism spectroscopic data.” Nucleic Acids Res. 32, W668-673, 2004) to confirm native structure.

**Q.** With `COc1cc(-c2ccc(N=Nc3c(O)ccc4ccccc34)c(OC)c2)ccc1N=Nc1c(O)ccc2ccccc12` [FBB2N] as the molecule, how does the “Solubility of dye product” value [1] read?
**A.** FBB2N: Dark Blue Pigment Insoluble

**Q.** With `Cc1cc(Cl)ccc1N=Nc1cc(S(=O)(=O)O)c2ccccc2c1N` [FRNA] as the molecule, how does the “Binding to thyroglobulin (in words)” value [2] read?
**A.** None of the Fast Red TR-based dyes including FRNA, FRHA, and FRAGA showed any significant binding

**Q.** And the “Specific binding to thyroglobulin” value ([2]; candidate dyes, Tables 3 and 4)?
**A.** No binding

**Q.** What about the “Solubility of dye product” value [1] of the same molecule?
**A.** Soluble

**Q.** For `CC[C@H](C)[C@@H]1NC(=O)[C@H](CCSC)NC(=O)[C@H](C)NC(=O)[C@H](CCCNC(=N)N)NC(=O)[C@H](Cc2ccc(O)cc2)NC(=O)[C@@H](N)CSSC[C@@H](C(=O)O)NC(=O)[C@H]([C@@H](C)O)NC(=O)[C@H]([C@@H](C)CC)NC(=O)[C@H](CCCNC(=N)N)NC(=O)[C@H](CCCCN)NC(=O)[C@H](Cc2ccc(O)cc2)NC(=O)[C@H](CC(=O)O)NC(=O)[C@H](C)NC(=O)CNC(=O)CNC(=O)[C@H](Cc2ccc(O)cc2)NC(=O)[C@H](CO)NC1=O` [Peptide 2] (H-CYRAMISYGGADYKRITC-OH; disulfide 1-18), which “Solubility (to 1 mM)” value [3] is on record?
**A.** 40% CH3COOH

**Q.** Which “Solubility (to 1 mM)” value [3] does the source give for `CC[C@H](C)[C@H](NC(=O)[C@H](CCSC)NC(=O)[C@H](CS)NC(=O)[C@H](CCCNC(=N)N)NC(=O)[C@@H](N)Cc1ccc(O)cc1)C(=O)N[C@@H](CO)C(=O)N[C@@H](Cc1ccc(O)cc1)C(=O)NCC(=O)NCC(=O)N[C@@H](C)C(=O)N[C@@H](CC(=O)O)C(=O)N[C@@H](Cc1ccc(O)cc1)C(=O)N[C@@H](CCCCN)C(=O)N[C@@H](CCCNC(=N)N)C(=O)N[C@H](C(=O)N[C@H](C(=O)N[C@H](C(=O)O)C(C)C)[C@@H](C)O)[C@@H](C)CC` [Peptide 1] here?
**A.** 60% CH3COOH, and 14% CH3CN

**Q.** Which “Solubility of dye product” value [1] does the source give for `Cc1cc(Cl)ccc1N=Nc1c(O)ccc2ccccc12` [FR2N] here?
**A.** FR2N: Bright Orange Pigment Insoluble

**Q.** With `Cc1cc(-c2ccc(/N=N/c3c(S(=O)(=O)O)cc4cc(S(=O)(=O)O)cc(N)c4c3O)c(C)c2)ccc1/N=N/c1c(S(=O)(=O)O)cc2cc(S(=O)(=O)O)cc(N)c2c1O` [TB] as the molecule, how does the “Binding to thyroglobulin (in words)” value [2] read?
**A.** least specific binding

**Q.** What about the “Specific binding to thyroglobulin at equilibrium” value [2] of the same molecule?
**A.** 3 molecules

**Q.** What about the “Binding to lysozyme (in words)” value [4] of the same molecule?
**A.** unable to bind

**Q.** What about the “Binding to lysozyme (in words)” value ([4]; listed as Trypan Blue) of the same molecule?
**A.** not to lysozyme

**Q.** For “sodium 4-(4-(benzyl-et-amino)-ph-azo)-2,5-di-cl-benzenesulphonate [AO50]”, which “Specific binding to thyroglobulin at equilibrium” value [2] is on record?
**A.** 15 molecules

**Q.** And the “Binding to lysozyme (in words)” value [4]?
**A.** able to bind

**Q.** What about the “Specific binding to lysozyme at equilibrium” value ([4]; Vmax of Michaelis-Menten fit) of the same molecule?
**A.** 1 molecule

**Q.** What about the “Effect of dye on native secondary structure of BSA (CD)” value ([5]; 10 min incubation with dye) of the same molecule?
**A.** does not change

**Q.** What about the “Denaturation of BSA by urea in the presence of dye (CD)” value ([5]; urea 2M, 4M, 6M (FBBNA), 4M urea (AO50, combination)) of the same molecule?
**A.** attenuated; also recorded: partially stabilize
